In series [1] the target is T1, N(G),N(G)-dimethylarginine dimethylaminohydrolase 1 (Homo sapiens, UniProt O94760). Description: Inhibition of recombinant human DDAH1 expressed in Escherichia coli BL21 Star (DE3) using SMTC as substrate assessed as decrease in L-citrulline and methanethiol production by CPM-based fluorimetric assay.
Series [2] addresses T1, N(G),N(G)-dimethylarginine dimethylaminohydrolase 1. Conditions: A549, 50 to 100 uM.
Description: Inhibition of DDAH in human A549 cells assessed as decrease in serum-stimulated cell proliferation at 50 to 100 uM preincubated for 2 hrs followed by fetal bovine serum addition measured 24 hrs post compound treatment by BrdU incorporation assay
In series [3] the target is N(G),N(G)-dimethylarginine dimethylaminohydrolase 1 (Mus musculus) (UniProt Q9CWS0). Description: Inhibition of DDAH in mouse MLE12 cells assessed as decrease in serum-stimulated cell proliferation at 50 to 100 uM preincubated for 2 hrs followed by fetal bovine serum addition measured 24 hrs post compound treatment by BrdU incorporation assay. It is filed as cell-based.
Sequence of N(G),N(G)-dimethylarginine dimethylaminohydrolase 1 (Mus musculus) (Q9CWS0 whole entry): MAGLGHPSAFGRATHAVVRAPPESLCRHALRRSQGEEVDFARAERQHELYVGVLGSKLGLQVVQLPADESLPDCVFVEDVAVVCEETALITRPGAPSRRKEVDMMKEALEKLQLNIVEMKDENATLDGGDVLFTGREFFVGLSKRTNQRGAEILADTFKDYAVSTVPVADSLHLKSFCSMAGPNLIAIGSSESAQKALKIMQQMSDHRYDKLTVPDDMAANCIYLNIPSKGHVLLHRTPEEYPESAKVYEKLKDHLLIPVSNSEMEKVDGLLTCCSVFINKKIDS

In series [4] the target is T1, N(G),N(G)-dimethylarginine dimethylaminohydrolase 1. Description: Inhibition of DDAH in lung fibroblasts isolated from late stage idiopathic pulmonary fibrosis patient assessed as reduction of TGF-beta-induced acid-soluble collagen levels at 50 uM after 24 hrs by sircol collagen assay.
For series [5] the target is unchanged. As to the kind of experiment: Inhibition of DDAH in HMEC1 assessed as increase in intracellular ADMA levels at 20 uM after 24 hrs by ELISA relative to vehicle-treated control. It is filed as cell-based. (In an ELISA, binding on a coated surface is turned into a signal by an enzyme label.)
For series [6] the target is unchanged. As to the kind of experiment: Inhibition of recombinant human DDAH1 expressed in Escherichia coli BL21 Star (DE3) using ADMA as substrate assessed as decrease in citrulline production after 4 hrs by colorimetric method.
For series [7] the target is unchanged. Description: Inhibition of recombinant human DDAH1 expressed in Escherichia coli BL21 Star (DE3) using SMTC as substrate assessed as decrease in L-citrulline and methanethiol production at 50 uM by CPM-based fluorimetric assay.
The target is the same in series [8]. Description: Inhibition of recombinant human DDAH1 expressed in Escherichia coli BL21 Star (DE3) using ADMA as substrate assessed as decrease in citrulline production at 50 uM after 4 hrs by colorimetric method.
The target of series [9] is N(G),N(G)-dimethylarginine dimethylaminohydrolase 1 (Mus musculus) (UniProt Q9CWS0). Description: Inhibition of DDAH in mouse MLE12 cells assessed as decrease in serum-stimulated cell proliferation at 3 to 100 uM preincubated for 2 hrs followed by fetal bovine serum addition measured 24 hrs post compound treatment by BrdU incorporation assay. The series is classed as cell-based. On the technique in general: Uptake of a labelled nucleoside into DNA is a usual measure of proliferation.

Series [10] is described as follows: Cytotoxicity against mouse MLE12 cells up to 300 uM by lactate dehydrogenase release assay. The series is classed as cell-based.
Series [11] has as its target T1, N(G),N(G)-dimethylarginine dimethylaminohydrolase 1. As to the kind of experiment: Inhibition of recombinant human DDAH1 expressed in Escherichia coli BL21 Star (DE3) using ADMA as substrate assessed as decrease in citrulline production at 50 uM preincubated with protein followed by substrate addition by colorimetric method.
For series [12] the target is unchanged. Description: Inhibition of DDAH in human A549 cells assessed as decrease in serum-stimulated cell proliferation at 3 to 100 uM preincubated for 2 hrs followed by fetal bovine serum addition measured 24 hrs post compound treatment by BrdU incorporation assay. It is filed as cell-based.
For series [13] the target is unchanged. As to the kind of experiment: Reversible inhibition of recombinant human DDAH1 expressed in Escherichia coli BL21 Star (DE3) using SMTC as substrate assessed as decrease in L-citrulline and methanethiol production at 1 to 100 times IC50 preincubated for 1 hr followed by 100 fold dilution by CPM-based fluorimetric assay.
Series [14] shares this target. As to the kind of experiment: Inhibition of DDAH in human A549 cells assessed as reduction in intracellular nitric oxide levels at 10 to 100 uM after 24 hrs by Griess assay. It is filed as cell-based. Background: The Griess reaction detects nitrite, a stable product of nitric oxide.
The target is the same in series [15]. Description: Inhibition of DDAH in lung fibroblasts isolated from late stage idiopathic pulmonary fibrosis patient assessed as reduction of TGF-beta-induced acid-soluble collagen levels at 100 uM after 24 hrs by sircol collagen assay.
A short description of series [16]: Cytotoxicity against human A549 cells up to 300 uM by lactate dehydrogenase release assay. The series is classed as cell-based.
Series [17] has as its target T1, N(G),N(G)-dimethylarginine dimethylaminohydrolase 1. Description: Inhibition of DDAH in human A549 cells assessed as increase in intracellular ADMA levels at 10 to 100 uM after 24 hrs by ELISA relative to vehicle-treated control. The series is classed as cell-based.
The target is the same in series [18]. Description: Inhibition of DDAH in human A549 cells assessed as reduction of A23187-induced apoptosis by measuring […] in mono and oligo nucleosome content at 20 to 100 uM after 24 hrs. The series is classed as cell-based.
Series [19] has the same target. Description: Inhibition of DDAH in human A549 cells assessed as downregulation of iNOS expression at 50 to 100 uM after 24 hrs by Western blot method. The series is classed as cell-based.
Series [20] shares this target. Description: Inhibition of DDAH in lung fibroblasts isolated from late stage idiopathic pulmonary fibrosis patient assessed as reduction of TGF-beta-induced acid-soluble collagen levels at 20 uM after 24 hrs by sircol collagen assay.
Series [21] shares this target. As to the kind of experiment: Inhibition of DDAH in human A549 cells assessed as decrease in serum-stimulated cell proliferation at 20 uM preincubated for 2 hrs followed by fetal bovine serum addition measured 24 hrs post compound treatment by BrdU incorporation assay. It is filed as cell-based.

Calls of active or inactive are those of the source. The rule behind the calls is not given here.

In general, inhibition refers to the relative decrease from the control value, in per cent. For orientation: IC50 means the midpoint of a concentration-inhibition curve.

T1 sequence (O94760 whole entry): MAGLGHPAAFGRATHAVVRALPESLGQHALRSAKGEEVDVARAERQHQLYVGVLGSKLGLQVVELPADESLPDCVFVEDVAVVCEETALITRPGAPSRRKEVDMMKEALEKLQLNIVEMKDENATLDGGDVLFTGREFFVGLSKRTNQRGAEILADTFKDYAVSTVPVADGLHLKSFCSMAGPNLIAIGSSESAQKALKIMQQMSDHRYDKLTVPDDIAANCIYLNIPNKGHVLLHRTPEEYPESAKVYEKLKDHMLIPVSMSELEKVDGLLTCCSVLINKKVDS

As for 4-[sequence] ACID, the inhibition entry in series [1] was “Active”.
For the compound PHENYLMERCURIC ACETATE, the IC50 in series [1] was less than 0.78 µM.
As to `COCCNC(=N)NCCC[C@H](N)C(=O)O`, the inhibition entry in [2], in series [3] and in series [4] was “Active” throughout. The inhibition in [5] is 68%.
`CP(=O)(O)c1nc2ccccc2s1`: the half-maximal inhibitory concentration (IC50) in [6] stood at 9.9 µM.
Regarding `N=C1Sc2ccccc2C2=NCCCN12`, the inhibition entry in series [7] and in series [8] was “Active” each time. The inhibition entry in series [1] was “Dose-dependent effect”; in series [5], 84%.
Regarding `COc1ccc2[nH]c([S+]([O-])Cc3ncc(C)c(OC)c3C)nc2c1` (configuration not stated) [OMEPRAZOLE], the inhibition result in [9], in series [11], in [7], in [12], in series [13] and in series [14] was “Active” throughout. Also, the inhibition result in [15], in series [8], in series [4], in [17], in [18] and in series [19] was “Active” each time. Also, the Activity result in series [10] and in series [16] was “Non-Toxic” in each case. Moreover, in [6], the IC50 lay in the range of 20 to 85 µM. Besides, the inhibition result in series [6] was “Dose-dependent effect”.
As for `Cc1c(OCC(F)(F)F)ccnc1C[S+]([O-])c1nc2ccccc2[nH]1` (configuration not stated), the inhibition entry in [20], in [11], in series [7], in series [8] and in [21] was “Active” in each case. The inhibition entry in series [6] is “Dose-dependent effect”.
In the case of `COCCCOc1ccnc(C[S+]([O-])c2nc3ccccc3[nH]2)c1C` (configuration not stated), the inhibition result in [11], in [7], in [8] and in [21] was “Active” each time.

Source of the values: ChEMBL document CHEMBL3882738, “Dimethylarginine Dimethylaminohydrolase inhibitors and methods of use thereof” (2014).
